# What was measured:
# CLL cells [1] = test: LC3-Lamp2 co-localization (autophagosome-lysosome fusion) by confocal microscopy in CLL cells; type: cell-based, human; settings: CLL cells incubated with 5 μM rapamycin (FIG. 9)
# Method: (§1) After 4 hours exposure to agents, cells were washed in phosphate-buffered saline (PBS) and made adherent on a microscope slide by centrifugation in a Cytospin3 (Shandon) centrifuge. Immediately after cytospin, cells were fixed in cold acetone. […] Nuclei were stained blue with DAPI (Vector Laboratories, Burlingame, Calif.). Images were taken using a 60× objective and 4× digital zoom with Olympus Fluoview 1000 Laser Scanning Confocal microscope at the Ohio State University Campus Microscopy and Imaging Facility. ATF6 antibody was purchased from LifeSpan Biosciences (Seattle, Wash.) and Nrf2 was from Santa Cruz Biotechnology (Santa Cruz, Calif.). Nuclei were evaluated for ATF6 and Nrf2 using confocal microscopy to collect Z stacks, approximately 45 slices per cell, 0.2 μm each.
# LC3 intensity and number of dots per cell were both assessed in the fluorescence images. Integrated intensity was measured using Metamorph v.7.0. To calculate the number of “dots” (local extreme point in pixel-intensity profile at which a number of high-intensity pixels form a cluster), a Gaussian filter was first applied to reduce noise. Cells were enumerated electronically by an improved watershed-based algorithm. To quantify co-localization, two binary nuclei images—red (R) and green (G)—are obtained. […]
# 697 cells = test: ChIP assay of ATF6 at GRP78 promoter in 697 cells; type: cell-based; settings: relative to IgG control
# Method: In brief, cells were treated with 37% formaldehyde to ensure crosslinking of proteins to DNA. Cells were lysed and sonicated to shear the chromatin to fragments of approximately 500 bp. Sheared chromatin was incubated with ATF6 antibody (LifeSpan Biosciences, Seattle, Wash.), followed by precipitation, washing and reversing of the crosslinks Purified DNA was then analyzed by real-time quantitative PCR using primers to the GRP78 promoter region. Primers were designed using Primer 3 software and purchased from IDT (Coralville, Iowa).
# PERK = PERK activity by eIF2α phosphorylation immunoblot in CLL cells; type: cell-based, human
# Method: (§2) Proteins extracted from whole cell lysates (50 μg/lane) were separated on polyacrylamide gels and transferred on nitrocellulose membrane. Antibodies used for immunoblots included LC3, IRE1α, TRAF2, PI3K III, ATG4C, ATG5-12, UVRAG, Beclin-1 (Cell Signaling, Boston, Mass.), GAPDH, Nrf2, ASK1, ULK1 (Santa Cruz Biotechnology), and Bif-1, ATG14-Barkor (Sigma-Aldrich, St Louis, Mo.). Species-appropriate secondary antibodies were obtained from BioRad Laboratories (Hercules, Calif.). Following antibody incubations, proteins were detected using a chemiluminescent substrate (BioRad Laboratories). For co-immunoprecipitations, TrueBlot beads (eBiosciences, San Diego, Calif.) and One-hour IP Western kit (GenScript, Piscataway, N.J.) were used according to manufacturer protocols. Quantification was done using FluorChem Q (Alpha Innotech, San Leandro Calif.).
# CLL cells [2] = test: LC3 confocal immunofluorescence (autophagosome formation) in CLL cells in vitro; type: cell-based, human; settings: CLL patient cells, 4 hours; rapamycin 5 μM, thapsigargin 1 μM, F-ara-A 5 μM, chlorambucil 20 μM, CAL-101 1 μM, rituximab 10 μg/ml, flavopiridol 2 μM, CQ 0.5 μM
# Method: as §1
# LC3 intensity and number of dots per cell were both assessed in the fluorescence images. Integrated intensity was measured using Metamorph v.7.0. To calculate the number of “dots” (local extreme point in pixel-intensity profile at which a number of high-intensity pixels form a cluster), a Gaussian filter was first applied to reduce noise. Cells were enumerated electronically by an improved watershed-based algorithm. To quantify co-localization, two binary nuclei images—red (R) and green (G)—are obtained. The correlation value is calculated as the number of white pixels of (R&G) divided by the number of pixels of (RIG), where (R&G) is the intersection of R and G, and (RIG) is the union of R and G. The program used for cell counts and measurement of correlation index is based on MatLab software (Natick, Mass.) and it was developed by members of Department of Biomedical Informatics, The Ohio State University.
# ATF6 = ATF6 nuclear translocation by confocal fluorescence microscopy in CLL cells; type: cell-based, human; settings: CLL patient cells, flavopiridol 2 μM or thapsigargin 1 μM, 4 hours
# Method: After 4 hours exposure to agents, cells were washed in phosphate-buffered saline (PBS) and made adherent on a microscope slide by centrifugation in a Cytospin3 (Shandon) centrifuge. Immediately after cytospin, cells were fixed in cold acetone. Next, the cells were incubated in blocking solution (2% bovine serum albumin in PBS) and stained for LC3 (Cell Signaling, Boston, Mass.)) and Lamp2 (Santa Cruz Biotechnology, Santa Cruz, Calif.) by incubating separately with the respective primary antibodies over night, in 4° C., followed by incubation with fluorescent secondary antibodies (Invitrogen, Carlsbad, Calif.): Alexa fluor 594 (red) anti-rabbit for LC3 and Alexa fluor 488 (green) anti-mouse for Lamp2. Nuclei were stained blue with DAPI (Vector Laboratories, Burlingame, Calif.). Images were taken using a 60× objective and 4× digital zoom with Olympus Fluoview 1000 Laser Scanning Confocal microscope at the Ohio State University Campus Microscopy and Imaging Facility. ATF6 antibody was purchased from LifeSpan Biosciences (Seattle, Wash.) and Nrf2 was from Santa Cruz Biotechnology (Santa Cruz, Calif.). Nuclei were evaluated for ATF6 and Nrf2 using confocal microscopy to collect Z stacks, approximately 45 slices per cell, 0.2 μm each.
# XBP1, IRE1, GRP78 = test: Real-time RT-PCR of ER stress genes in CLL cells in vitro; type: cell-based, human; settings: CLL cells n=5; flavopiridol 2 μM, thapsigargin 1 μM, tunicamycin 3 μg/ml; CD52 control gene
# Method: (§3) RNA was extracted using TRIzol reagent (Invitrogen, Carlsbad, Calif.) and purified using QIAGEN RNeasy columns (Qiagen, Valencia, Calif.). cDNA was prepared with SuperScript First-Strand Synthesis System (Invitrogen). Real-time PCR was performed using primers purchased from Applied Biosystems. Detection was performed using an ABI Prism 7700 sequence detection system (Applied Biosystems). Average relative expression (treatment compared with vehicle) was normalized to the internal control gene CD52. Primers to detect spliced XBP1 were designed using Primer 3 software and purchased from IDT. Samples were analyzed on 10% acrylamide gels.
# JNK1 and p38MAPK = test: Immunoblot of phosphorylated JNK1 and p38MAPK in CLL cells in vitro; type: cell-based, human; settings: flavopiridol 2 μM, thapsigargin 1 μM, F-ara-A 5 μM
# Method: as §2
# CLL cells [3] = test: Cell viability by annexin V/PI flow cytometry in CLL cells
# Method: Percent of live cells was determined by staining with annexin V-fluorescein isothiocyanate and propidium iodide (PI). After exposure to agents, cells were washed with PBS and stained in 1× binding buffer (BD Biosciences, Franklin Lakes, N.J.). Cell viability was assessed by flow cytometry using a Beckman-Coulter Cytomics FC500 cytometer. Data were analyzed with the CXP Cytometer software package (Beckman-Coulter). A total of 10,000 cells were counted for each sample. The cells treated with flavopiridol were washed after 4 hours with PBS and re-suspended in regular growth medium (RPMI 1640) supplemented with 10% human serum and antibiotics for the remainder of the incubation time. […] For all the other conditions, cells were incubated with the respective drugs for 24 hours continuously.
# CLL cells were suspended in buffer V (Amaxa kit, Lonza, Allendale, N.J.) and nucleofection was performed using program U016 (5 μg siRNA and 1×10^7 cells per cuvette). Scrambled siRNA and siRNAs to ATG5, ATG7 and ASK1 were purchased from Sigma-Aldrich. Cells were immediately suspended in warm, complete media supplemented with 10% human serum, and RNA was extracted after 36 hours. For CDK1 and CDK5, siRNAs were purchased from Applied Biosystems (Carlsbad, Calif.). Transfections were done using 5 nM siRNA per cuvette, and RNA was harvested at 48 hours.
# Jurkat cell line = test: eIF2α phosphorylation immunoblot in cell lines (control); type: cell-based
# Method: as §2
# IRE1 = test: XBP1 splicing (IRE1 activity) PCR in CLL cells; type: cell-based, human; settings: for induction of XBP1 splicing: CLL samples
# Method: as §3
# [4] = system: cell lines 293T, RAW and 697, normal B cells; test: XBP1 splicing PCR in normal B cells and cell lines; type: cell-based
# Method: as §3
# caspase 4 = test: Caspase 4 activity (AFC assay) in CLL cells treated in vitro; type: cell-based, human; settings: Z-YVAD-FMK 20 μM in combination with flavopiridol, thapsigargin or tunicamycin
# Method: (§4) The presence of active caspase enzymes was determined by the AFC assay. Briefly, lysates containing approximately 3×10^6 cells were incubated with 50 μM LEVD-AFC (caspase 4 substrate) or LETD-AFC (caspase 8 substrate) from MP Biomedicals (Solon, Ohio) in 2× cytobuffer from BioVision (Exton, Pa.) containing 10 mM dithiothretiol (DTT). Caspase 4 activity was measured one hour after addition of substrate and caspase 8 activity was measured 30 minutes after addition of substrate. Release of free AFC was measured with a Beckman-Coulter DTX 880 multimode detector (Filters: excitation, 405/10 nm; emission, 535/25 nm). Caspase 4 inhibitor Z-YVAD-FMK was purchased from R&D Systems.
# caspase 8 = test: Caspase 8 activity (AFC assay) in CLL cells treated in vitro; type: cell-based, human; settings: Z-YVAD-FMK 20 μM in combination with flavopiridol, thapsigargin or tunicamycin
# Method: as §4
compound,measurement,setting,value
CCN(CC)CCCC(C)Nc1ccnc2cc(Cl)ccc12 (centres unmarked) [chloroquine],chloroquine concentrations that inhibit autophagosome-lysosome fusion,CLL cells [1],0.1 to 0.5 µM
C/C=C(/C)C(=O)O[C@H]1C(C)=C2[C@H]([C@@H]1OC(=O)CCCCCCC)[C@@](C)(OC(C)=O)C[C@H](OC(=O)CCC)[C@@]1(O)[C@H]2OC(=O)[C@@]1(C)O [thapsigargin],binding of GRP78 promoter region by ATF6,697 cells,enhanced binding of the GRP78 promoter region by ATF6
same,PERK activity (phosphorylation of eIF2α),PERK,minimally active
same,LC3 aggregation / LC3 fluorescence (autophagosome formation) versus vehicle,CLL cells [2],increase in LC3 aggregation
same,ATF6 nuclear translocation,ATF6,increased nuclear translocation
same,"expression of ER stress genes XBP1, IRE1 and GRP78","XBP1, IRE1, GRP78","significant, time-dependent increase in expression of ER stress genes XBP1, IRE1 and GRP78"
same,phosphorylation of JNK1 and p38MAPK,JNK1 and p38MAPK,induced the phosphorylation of both JNK1 and p38MAPK
same,effect of chloroquine addition on cell death caused by the agent,"CLL cells [3]; CLL cells, annexin/PI negative, CQ 0.5 μM, flavopiridol 4 hours then washed, CQ continuous 24 hours",significantly enhanced
same,effect of ATG5/ATG7 siRNA vs scrambled siRNA on cytotoxicity of the agent,"CLL cells [3]; human, 24 h, 1 μM",significantly (P=0.0047) enhanced
same,eIF2α phosphorylation,Jurkat cell line,dramatic EIF2α phosphorylation
same,IRE1 activity (splicing of IRE1 substrate XBP1),IRE1; CLL cells,no evidence of IRE1 activity
same,induction of XBP1 splicing,IRE1,neither thapsigargin nor tunicamycin induced XBP1 splicing in any of the samples analyzed
same,XBP1 splicing,[4],XBP1 splicing is detected
"rituximab: agent used in CLL, from Genentech",LC3 aggregation / LC3 fluorescence (autophagosome formation) versus vehicle,CLL cells [2],neither chlorambucil nor rituximab produced this effect
Z-YVAD-FMK,inhibition of agent-induced caspase 4 activity,caspase 4,successfully inhibited
same,effect on flavopiridol-mediated cell death,"CLL cells [3]; CLL cells n=5, Z-YVAD-FMK 20 μM, flavopiridol 2 μM, 24 hours",significantly (P=0.012) reduced
same,inhibition of agent-induced caspase 8 activity,caspase 8,successfully inhibited
O=C(O)CCCc1ccc(N(CCCl)CCCl)cc1 [chlorambucil],LC3 aggregation / LC3 fluorescence (autophagosome formation) versus vehicle,CLL cells [2],neither chlorambucil nor rituximab produced this effect
tunicamycin,"expression of ER stress genes XBP1, IRE1 and GRP78","XBP1, IRE1, GRP78","significant, time-dependent increase in expression of ER stress genes XBP1, IRE1 and GRP78"
same,induction of XBP1 splicing,IRE1,neither thapsigargin nor tunicamycin induced XBP1 splicing in any of the samples analyzed

# Source: patent publication US9044474B2, “Compositions and methods for increasing drug efficacy in cancer” (The Ohio State University, priority 2010, dated 2015)
